We go through 3 molecules from PMC3907537, “Evaluation of the Endothelin Receptor Antagonists Ambrisentan, Bosentan, Macitentan, and Sitaxsentan as Hepatobiliary Transporter Inhibitors and Substrates in Sandwich-Cultured Human Hepatocytes” (PLoS ONE, 2014).

The structures appear in SMILES notation. Several values for one entry are separate records, joined by “and”; a condition that tells them apart may be missing. Identical values can stand only once.

The first assay addresses T1, BCRP (Homo sapiens, UniProt Q9UNQ0).
T1 construct: host or cells: MDCKII
T1 sequence (Q9UNQ0 1-655): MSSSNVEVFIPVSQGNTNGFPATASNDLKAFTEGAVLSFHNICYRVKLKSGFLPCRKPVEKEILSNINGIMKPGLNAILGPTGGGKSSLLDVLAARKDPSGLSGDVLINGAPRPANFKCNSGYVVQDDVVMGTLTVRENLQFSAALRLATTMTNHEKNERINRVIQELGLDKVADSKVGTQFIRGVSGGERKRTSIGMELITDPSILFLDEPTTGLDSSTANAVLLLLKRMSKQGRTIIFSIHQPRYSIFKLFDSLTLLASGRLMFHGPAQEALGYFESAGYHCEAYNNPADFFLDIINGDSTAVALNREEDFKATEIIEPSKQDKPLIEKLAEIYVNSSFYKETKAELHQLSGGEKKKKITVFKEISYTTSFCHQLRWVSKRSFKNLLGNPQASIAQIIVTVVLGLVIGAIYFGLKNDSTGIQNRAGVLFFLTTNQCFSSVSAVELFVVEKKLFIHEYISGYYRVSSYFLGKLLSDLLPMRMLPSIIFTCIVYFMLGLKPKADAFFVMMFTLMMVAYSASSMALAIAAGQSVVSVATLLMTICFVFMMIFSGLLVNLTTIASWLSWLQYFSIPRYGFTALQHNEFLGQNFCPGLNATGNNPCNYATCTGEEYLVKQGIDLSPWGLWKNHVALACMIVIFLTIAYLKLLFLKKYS
Kind of assay: BCRP inhibition in MDCKII-ABCG2 cells. The note with it: mean ± SD of 3 independent studies in duplicate, tested 0.14–100 µM. Format: cell-based. The source says:
(§1) Chinese Hamster Ovary (CHO) cells were obtained from Professor B. Stieger’s laboratory at University of Zurich, Zurich, Switzerland. Madin-Darby Canine Kidney strain II (MDCKII) cells were obtained from Nederlands Kanker Instituut (NKI), Amsterdam, Netherlands. NTCP-CHO cells, BSEP and MRP2 membrane vesicles were developed and validated at Solvo Biotechnology, Budaors, Hungary.
MDCKII cells were maintained in DMEM with sodium pyruvate, Glutmax, 1% Penicillin/Streptomycin and 10% FBS in an incubator set at 37°C, 90% humidity and 5% CO2. MDCKII cells were seeded in 96-well black cell culture plates with clear bottoms at a density of 5×10^4 cells/well for Pgp and 2×10^4 cells/well for BCRP and grown to confluence. For the Pgp assay, test compounds were serially diluted in DMSO and then added into in cell culture medium (without FBS) containing 10 µM Calcein AM and incubated for 1 h. Following the removal of media containing Calcein AM and test compound, cells were washed five times with […] phosphate buffered saline containing magnesium and calcium (PBS). Wells were analyzed for Calcein AM fluorescence at an excitation of 494 nm and an emission of 517 nm. For the BCRP assay, test compounds were serially diluted DMSO and then spiked in cell culture medium (without FBS) containing 1 µM pheophorbide a (PhA) and incubated for 18 hours with MDCKII-ABCG2 cells. Following the removal of media containing PhA and test compound, cells were then washed five times with PBS. Wells were analyzed for PhA fluorescence at an excitation of 415 nm and an emission of 675 nm.
All assays were performed in duplicate. IC50 was defined as the test article concentration needed to inhibit the maximal transporter specific accumulation by 50%. IC50 values were calculated using non-linear fitting of % inhibition versus concentration to a sigmoidal curve with a variable Hill Coefficient using GraphPad Prism 5 (GraphPad Software Inc., San Diego, CA).
As usually defined, the IC50 is the concentration needed to halve the response being measured. `COC(c1ccccc1)(c1ccccc1)[C@H](Oc1nc(C)cc(C)n1)C(=O)O` [ambrisentan]: the IC50 is more than 100 µM.

In the case of `COc1ccccc1Oc1c(NS(=O)(=O)c2ccc(C(C)(C)C)cc2)nc(-c2ncccn2)nc1OCCO` [bosentan], the IC50 is more than 100 µM.

Consider `CCCNS(=O)(=O)Nc1ncnc(OCCOc2ncc(Br)cn2)c1-c1ccc(Br)cc1` [macitentan], for which the IC50 amounted to 75 ± 37 µM.

The target in another assay is T2, NTCP (Homo sapiens, UniProt Q14973).
T2 construct: host or cells: CHO
T2 sequence (Q14973 1-349): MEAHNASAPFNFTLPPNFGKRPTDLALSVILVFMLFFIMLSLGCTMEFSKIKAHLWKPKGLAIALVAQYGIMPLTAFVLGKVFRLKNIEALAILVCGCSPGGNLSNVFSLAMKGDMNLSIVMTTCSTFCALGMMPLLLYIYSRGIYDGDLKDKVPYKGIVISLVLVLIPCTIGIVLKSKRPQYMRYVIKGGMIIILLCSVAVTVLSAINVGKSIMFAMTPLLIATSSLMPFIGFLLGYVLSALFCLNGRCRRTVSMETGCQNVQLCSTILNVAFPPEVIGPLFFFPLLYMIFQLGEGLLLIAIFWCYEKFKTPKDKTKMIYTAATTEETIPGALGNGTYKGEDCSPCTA
Kind of assay: NTCP inhibition, 3H taurocholate uptake in transfected CHO cells. The format is cell-based. To be noted: mean ± SD of 3 independent studies in duplicate, tested 0.14–100 µM.
Description: as §1
CHO cells, either wild type or transfected with the genes encoding human NTCP, OATP1B1 and OATP1B3, were maintained in Dulbecco’s Modification of Eagle’s Medium (DMEM) containing 1,000 mg/L D-glucose, L-glutamine, 25 mM HEPES buffer, 110 mg/L sodium pyruvate, 1% Penicillin/Streptomycin, 10% fetal bovine serum (FBS), 0.05 mg/mL L proline and 0.5 mg/mL of geneticin G-418. Cells were maintained in incubators set at 37°C, 90% humidity and 5% CO2. OATP1B1 and OATP1B3 over-expressing cells were seeded in BioCoat Poly-D-Lysine coated 96-well black cell culture plates with clear bottoms at a density of 1×10^5 cells/well. Sodium butyrate (10 mM) was added to the OATP1B1 and OATP1B3 cells once seeded to increase the protein expression level and the cells were grown to confluence overnight. The assay buffer contained 142 mM NaCl, 5 mM KCl, 1 mM KH2PO4, 1.2 mM MgSO4, 1.5 mM CaCl2, 5 mM Glucose and 12.5 mM HEPES (pH 7.4). After removal of the media and before adding test compounds, the cells were washed twice with 37°C assay buffer followed by a 0.5 h pre-incubation with assay buffer. […] Wells were analyzed for Fluo 3 fluorescence at an excitation of 485 nm and emission of 530 nm. Inhibition of NTCP was studied using similar conditions to those described for OATP1B1 and OATP1B3 except that inhibition of the uptake ^3H taurocholate into transfected CHO cells was monitored using radioactive scintillation counting.
All assays were performed in duplicate. […] IC50 values were calculated using non-linear fitting of % inhibition versus concentration to a sigmoidal curve with a variable Hill Coefficient using GraphPad Prism 5 (GraphPad Software Inc., San Diego, CA).
Consider `COC(c1ccccc1)(c1ccccc1)[C@H](Oc1nc(C)cc(C)n1)C(=O)O` [ambrisentan], for which the IC50 was more than 100 µM.

In the case of `COc1ccccc1Oc1c(NS(=O)(=O)c2ccc(C(C)(C)C)cc2)nc(-c2ncccn2)nc1OCCO` [bosentan], the IC50 was 36 µM and 35.6 µM.

Consider `CCCNS(=O)(=O)Nc1ncnc(OCCOc2ncc(Br)cn2)c1-c1ccc(Br)cc1` [macitentan], for which the IC50 is 10 µM and 9.8 µM.
